The record followed here is patent US20240358726A1, “SPECIFIC T[…] MARIJUANA DOSES FOR STRESS AND PAIN” (Yale University, priority 2021, published 2024).

Molecules are shown by their SMILES.

Holding throughout (type): in vivo, human
The nature of series [1]: Plasma levels of CBD and THC after acute dose (Example 1 cross-over study). The conditions noted are these: over the course of 4.45 hours (285 minutes), recreational marijuana users. The procedure: FIGS. 1A-1B: Plasma levels of CBD and THC—adjusted for baseline, for each of the dose conditions over the course of […] (285 minutes).
(§1) Sessions were completed one-week apart to allow for an adequate washout period between sessions.

Series [2] relates to recreational marijuana users. The series can be described thus: Wanting More Drug rating (drug craving) after acute dose. The conditions noted are these: adjusted for baseline.
Source text: (§2) FIGS. 2A-2D: Blood Pressure, Pulse and Wanting More Drug Rating, adjusted for Baseline.
as §1

A short description of series [3]: Blood pressure and pulse after acute dose (Example 1 safety study). The conditions noted are these: recreational marijuana users.
Source text: as §2, §1
(§3) The first study was directed towards assessing safety of the THC and CBD doses in healthy, recreational cannabis users. […] The novel pain provocation experimental method allowed for detection of this effect within this first safety protocol assessment.

In series [4] the test system is recreational marijuana users. Kind of series: Provoked pain and anxiety ratings during adapted CPT protocol. The conditions noted are these: versus 40 CBD+20 THC, 100 CBD alone and 40 CBD alone; CBD alone versus CBD with low doses of THC (4:1 and 3:1).
Source text: FIGS. 3A-3B: Provoked average pain and anxiety (adjusted for baseline) ratings during adapted CPT protocol.
as §1, §3

As to `C=C(C)[C@@H]1CCC(C)=C[C@H]1c1c(O)cc(CCCCC)cc1O` [CBD40, cannabidiol], in series [1], the “plasma THC levels adjusted for baseline, relative to placebo” value is on record as “not”. The “average drug craving (want more drug), relative to placebo” value in series [2] is reported as “significantly reduced”.

`C=C(C)[C@@H]1CCC(C)=C[C@H]1c1c(O)cc(CCCCC)cc1O` [CBD100, cannabidiol]: in series [1], the “plasma CBD levels adjusted for baseline, relative to placebo” value is listed as “significantly increased” and the “plasma THC levels adjusted for baseline, relative to placebo” value is “not”. Further, in series [3], the “diastolic BP adjusted for baseline, relative to placebo” value is on record as “significantly increased”. Besides, in series [2], the “average drug craving (want more drug), relative to placebo” value is listed as “significantly reduced”.

On to `C=C(C)[C@@H]1CCC(C)=C[C@H]1c1c(O)cc(CCCCC)cc1O` [CBD, cannabidiol], for which, in series [4], the “reducing pain and stress responses, comparison between dose conditions” value is “not as effective”.
